Test results from the supplement of paper PMC10307832.

Tests used:
Experiment in all cases: relative viability (nuclei count vs DMSO), 5 days (fraction); higher = more cells survive
NCI-H1792 = tested on: NCI-H1792
Method in brief: (§1)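 Five library-drug doses in √10 steps were combined with a fixed anchor-drug dose, or a single drug was given alone, by pin tool to lung cancer cell lines in 1536-well plates the day after seeding. Nuclei were stained and counted after 5 days. Relative viability is the nuclei count in treated wells over that in vehicle wells, taken as the median of duplicate plates.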

NCI-H1993 = tested on: NCI-H1993
Method in brief: as §1

HCC-15 = tested on: HCC-15
Method in brief: as §1

NCI-H838 = tested on: NCI-H838
Method in brief: as §1

NCI-H358 = tested on: NCI-H358
Method in brief: as §1

COR-L23 = tested on: COR-L23
Method in brief: as §1

NCI-H647 = tested on: NCI-H647
Method in brief: as §1

NCI-H1395 = tested on: NCI-H1395
Method in brief: as §1

NCI-H1734 = tested on: NCI-H1734
Method in brief: as §1

NCI-H2009 = tested on: NCI-H2009
Method in brief: as §1

NCI-H1755 = tested on: NCI-H1755
Method in brief: as §1

NCI-H1793 = tested on: NCI-H1793
Method in brief: as §1

UMC-11 = tested on: UMC-11
Method in brief: as §1

HOP-62 = tested on: HOP-62
Method in brief: as §1

NCI-H522 = tested on: NCI-H522
Method in brief: as §1

NCI-H2170 = tested on: NCI-H2170
Method in brief: as §1

COR-L 105 = tested on: COR-L 105
Method in brief: as §1

NCI-H1355 = tested on: NCI-H1355
Method in brief: as §1

SK-MES-1 = tested on: SK-MES-1
Method in brief: as §1

NCI-H2228 = tested on: NCI-H2228
Method in brief: as §1

NCI-H2347 = tested on: NCI-H2347
Method in brief: as §1

HARA = tested on: HARA
Method in brief: as §1

## COc1cc2nccc(Oc3ccc(NC(=O)Nc4cc(C)on4)c(Cl)c3)c2cc1OC [Tivozanib] + CCNC(=O)c1noc(-c2cc(C(C)C)c(O)cc2O)c1-c1ccc(CN2CCOCC2)cc1 [Luminespib] (partner 0.01 µM)
NCI-H1792; first compound 0.005 µM
  relative viability: 0.457
NCI-H1792; first compound 0.01581 µM
  relative viability: 0.344
NCI-H1792; first compound 0.05 µM
  relative viability: 0.598
NCI-H1792; first compound 0.1581 µM
  relative viability: 0.415
NCI-H1792; first compound 0.5 µM
  relative viability: 0.551
NCI-H1993; first compound 0.005 µM
  relative viability: 0.783
NCI-H1993; first compound 0.01581 µM
  relative viability: 0.741
NCI-H1993; first compound 0.05 µM
  relative viability: 0.955
NCI-H1993; first compound 0.1581 µM
  relative viability: 0.753
NCI-H1993; first compound 0.5 µM
  relative viability: 0.825
HCC-15; first compound 0.005 µM
  relative viability: 0.249
HCC-15; first compound 0.01581 µM
  relative viability: 0.382
HCC-15; first compound 0.05 µM
  relative viability: 0.327
HCC-15; first compound 0.1581 µM
  relative viability: 0.398
HCC-15; first compound 0.5 µM
  relative viability: 0.378
NCI-H838; first compound 0.005 µM
  relative viability: 0.196
NCI-H838; first compound 0.01581 µM
  relative viability: 0.265
NCI-H838; first compound 0.05 µM
  relative viability: 0.501
NCI-H838; first compound 0.5 µM
  relative viability: 0.237
NCI-H358; first compound 0.005 µM
  relative viability: 0.336
NCI-H358; first compound 0.01581 µM
  relative viability: 0.568
NCI-H358; first compound 0.05 µM
  relative viability: 0.478
NCI-H358; first compound 0.5 µM
  relative viability: 0.339
COR-L23; first compound 0.005 µM
  relative viability: 0.62
COR-L23; first compound 0.01581 µM
  relative viability: 0.607
COR-L23; first compound 0.05 µM
  relative viability: 0.748
COR-L23; first compound 0.1581 µM
  relative viability: 0.597
COR-L23; first compound 0.5 µM
  relative viability: 0.532
NCI-H647; first compound 0.005 µM
  relative viability: 0.156
NCI-H647; first compound 0.01581 µM
  relative viability: 0.527
NCI-H647; first compound 0.05 µM
  relative viability: 0.401
NCI-H647; first compound 0.1581 µM
  relative viability: 0.257
NCI-H647; first compound 0.5 µM
  relative viability: 0.148
NCI-H1395; first compound 0.005 µM
  relative viability: 0.654
NCI-H1395; first compound 0.01581 µM
  relative viability: 0.755
NCI-H1395; first compound 0.05 µM
  relative viability: 0.852
NCI-H1395; first compound 0.1581 µM
  relative viability: 0.706
NCI-H1395; first compound 0.5 µM
  relative viability: 0.688
NCI-H1734; first compound 0.005 µM
  relative viability: 0.2
NCI-H1734; first compound 0.01581 µM
  relative viability: 0.231
NCI-H1734; first compound 0.05 µM
  relative viability: 0.325
NCI-H1734; first compound 0.1581 µM
  relative viability: 0.178
NCI-H1734; first compound 0.5 µM
  relative viability: 0.18
NCI-H2009; first compound 0.005 µM
  relative viability: 1.04
NCI-H2009; first compound 0.01581 µM
  relative viability: 1.01
NCI-H2009; first compound 0.05 µM
  relative viability: 0.973
NCI-H2009; first compound 0.1581 µM
  relative viability: 1.04
NCI-H2009; first compound 0.5 µM
  relative viability: 0.984
NCI-H1755; first compound 0.005 µM
  relative viability: 0.466
NCI-H1755; first compound 0.01581 µM
  relative viability: 0.346
NCI-H1755; first compound 0.05 µM
  relative viability: 0.406
NCI-H1755; first compound 0.1581 µM
  relative viability: 0.329
NCI-H1755; first compound 0.5 µM
  relative viability: 0.453
NCI-H1793; first compound 0.005 µM
  relative viability: 0.154
NCI-H1793; first compound 0.01581 µM
  relative viability: 0.422
NCI-H1793; first compound 0.05 µM
  relative viability: 0.2
NCI-H1793; first compound 0.1581 µM
  relative viability: 0.141
NCI-H1793; first compound 0.5 µM
  relative viability: 0.237
UMC-11; first compound 0.005 µM
  relative viability: 1.03
UMC-11; first compound 0.01581 µM
  relative viability: 0.975
UMC-11; first compound 0.05 µM
  relative viability: 1.03
UMC-11; first compound 0.5 µM
  relative viability: 1.06
HOP-62; first compound 0.005 µM
  relative viability: 0.857
HOP-62; first compound 0.01581 µM
  relative viability: 0.961
HOP-62; first compound 0.05 µM
  relative viability: 0.894
HOP-62; first compound 0.1581 µM
  relative viability: 0.932
HOP-62; first compound 0.5 µM
  relative viability: 0.918
NCI-H522; first compound 0.005 µM
  relative viability: 0.903
NCI-H522; first compound 0.01581 µM
  relative viability: 1.01
NCI-H522; first compound 0.05 µM
  relative viability: 1.03
NCI-H522; first compound 0.1581 µM
  relative viability: 1.16
NCI-H522; first compound 0.5 µM
  relative viability: 1.22
NCI-H2170; first compound 0.005 µM
  relative viability: 0.711
NCI-H2170; first compound 0.01581 µM
  relative viability: 0.606
NCI-H2170; first compound 0.05 µM
  relative viability: 0.661
NCI-H2170; first compound 0.1581 µM
  relative viability: 0.304
NCI-H2170; first compound 0.5 µM
  relative viability: 0.907
COR-L 105; first compound 0.005 µM
  relative viability: 0.669
COR-L 105; first compound 0.01581 µM
  relative viability: 0.657
COR-L 105; first compound 0.05 µM
  relative viability: 1.07
COR-L 105; first compound 0.1581 µM
  relative viability: 0.734
COR-L 105; first compound 0.5 µM
  relative viability: 0.751
NCI-H1355; first compound 0.005 µM
  relative viability: 0.612
NCI-H1355; first compound 0.01581 µM
  relative viability: 0.686
NCI-H1355; first compound 0.05 µM
  relative viability: 0.747
NCI-H1355; first compound 0.1581 µM
  relative viability: 0.462
NCI-H1355; first compound 0.5 µM
  relative viability: 0.728
SK-MES-1; first compound 0.005 µM
  relative viability: 0.737
SK-MES-1; first compound 0.01581 µM
  relative viability: 0.832
SK-MES-1; first compound 0.05 µM
  relative viability: 0.773
SK-MES-1; first compound 0.1581 µM
  relative viability: 0.837
SK-MES-1; first compound 0.5 µM
  relative viability: 0.807
NCI-H2228; first compound 0.005 µM
  relative viability: 0.0873
NCI-H2228; first compound 0.01581 µM
  relative viability: 0.219
NCI-H2228; first compound 0.05 µM
  relative viability: 0.112
NCI-H2228; first compound 0.1581 µM
  relative viability: 0.185
NCI-H2228; first compound 0.5 µM
  relative viability: 0.109
NCI-H2347; first compound 0.01581 µM
  relative viability: 0.488
NCI-H2347; first compound 0.05 µM
  relative viability: 0.886
NCI-H2347; first compound 0.5 µM
  relative viability: 0.249
HARA; first compound 0.005 µM
  relative viability: 0.686
HARA; first compound 0.01581 µM
  relative viability: 0.795
HARA; first compound 0.05 µM
  relative viability: 0.75
HARA; first compound 0.1581 µM
  relative viability: 0.964
HARA; first compound 0.5 µM
  relative viability: 0.689
